Reference: publication PMC11357992, “Non-invasive mapping of systemic neutrophil dynamics upon cardiovascular injury” (Nature Cardiovascular Research, 2023)
Where “and” joins values, the source holds several entries; their conditions need not be identical. Equal entries are not always repeated. Where no end group is shown, it is not given here. Side-chain parts run from the residue outwards. rhodamine‑labelled PEGylated perfluoro‑15‑crown‑5 ether nanoemulsion = not defined here; carboxyfluorescein = N-terminal fluorescence label (CF)

How the values were obtained:
bone marrow neutrophils [1] = assay: In situ labeling of bone marrow neutrophils and tracking after MI, 1H/19F MRI of bone marrow; assay type: in vivo, mouse
Procedure: For labeling of neutrophils before MI, mice were anesthetized (1.5% isoflurane) and 1 mmol per kg BW PFCs were injected intravenously via the tail vein on 3 consecutive days. Induction of MI was essentially carried out as previously described. For inhibiting the egress of neutrophils from the bone marrow in a subset of experiments, a cocktail of neutralizing antibodies was injected i.p. 1 h before and 4 h after MI (CXCL1, CXCL2, G-CSF, GM-CSF, 50 µg each, Thermo Fisher). To generate neutropenic mice, 48 and 24 h before MI, 500 µg of the Ly6G-depletion antibody (BioXcell, clone 1A8) was injected i.p. in independent experiments.
All experiments were performed with a vertical 9.4 T Bruker AVANCE^III Wide Bore NMR spectrometer (Bruker) driven by ParaVision 5.1 and operating at frequencies of 400.21 MHz for ^1H measurements and 376.54 MHz for ^19F measurements using a Bruker microimaging unit, Micro2.5, with actively shielded gradient sets (1.5 T m^−1). Data were acquired using a 25-mm quadrature ^19F resonator with one channel tunable to both ^1H and ^19F. Mice were anesthetized with 1.5% isoflurane and kept at 37 °C. After acquisition of morphological ^1H images, the resonator was tuned to ^19F, and anatomically matching ^19F images were recorded essentially as described previously. […]
Slice packages were placed in sagittal orientation to cover the complete bone marrow in the tibia and femur in both legs using the following scan details: ^1H RARE, TR = 2,000 ms, FOV = 4.00 × 2.56 cm^2, matrix = 256 × 256, ST = 1 mm, tAcq = 1 min; ^19F RARE, TR = 2,500 ms, FOV = 4.00 × 2.56 cm^2, matrix = 64 × 64, ST = 3 mm, tAcq = 10 min.
Extended Data Fig. 4 Experimental timeline and whole body ^1H/^19F MRI of a ^mNPPFC-treated mouse. a, To label neutrophils within the bone marrow, ^mNPPFCs (or ^ConPFCs as control) were intravenously injected on three consecutive days (day −3, −2, −1) followed by ^1H/^19F MRI of the bone marrow on day 0. Subsequently, MI was induced and bone marrow and the infarcted heart were analyzed by combined ^1H/^19F MRI 24 h later. b, In separate experiments, neutralizing antibodies against CXCL1, CXCL2, G-CSF and GM-CSF were injected intraperitoneally (i. p.; 50 µg) 1 h before and 4 h post induction of MI to inhibit the MI-stimulated egress of neutrophils from the bone marrow and their infiltration into the heart. c, To determine the whole body biodistribution of ^mNPPFCs, ^mNPPFCs were intravenously injected daily over three consecutive days. Afterwards, whole body ^1H/^19F MRI measurements were performed to visualize the labelled neutrophils in the different bone marrow compartments. The bright ^19F spot in the middle represents the liver – an organ known to be as major site of (PFC) nanoparticle deposition.
Extended Data Fig. 5 ^mNPPFC incorporation into the bone marrow and cardiac function after MI. a, Impact of neutrophil depletion on ^mNPPFC incorporation into the bone marrow: For in vivo labeling of bone marrow neutrophils, ^mNPPFCs were injected intravenously and 24 h later the ^19F signal within the femur and tibia was determined (gray). […] The marrow mainly belongs to the diaphysis whereas the growth of the bones takes place at the inner and outer epiphysis. […]

bone marrow neutrophils [2] = assay: as above; assay type: in vivo, mouse; settings: Depletion of neutrophils by Ly6G Ab injection 48 and 24 h prior to mNPPFC injection; 24 h after injection; individual experiments

In the case of “mNPPFCs: PEGylated rhodamine-labeled perfluoro-15-crown-5 ether nanoemulsion (maleimide PFCs) coupled with murine neutrophil-specific peptide mNP (carboxyfluorescein-DFYKPMPNLRITGGGC([maleimide‑PEG2000‑DSPE-rhodamine‑labelled PEGylated perfluoro‑15‑crown‑5 ether nanoemulsion]); reading uncertain; also: printed as DFYKPMPNLRIT-GGG-C)”, the “19F signal of bone marrow, Post” value (bone marrow neutrophils [1]; 1H/19F MRI, after MI, panel B raw data, single animals) is reported as 384270 and 284234 and 342343 and 246818 and 294364 and 237217 and 352300, the “19F signal of bone marrow, Pre” value (bone marrow neutrophils [1]; 1H/19F MRI, before MI, panel B raw data, single animals) is reported as 555612 and 765758 and 385254 and 440946 and 378880 and 354237 and 356979 and 487088 and 602276 and the “19F signal within the femur and tibia (bone marrow)” value (bone marrow neutrophils [1]; Ctrl (no depletion), 24 h after i.v. mNPPFC injection, individual experiments) is reported as 1.88E+06 and 1.21E+06 and 1.06E+06 and 1.73E+06. For the same substance, the “change of bone marrow 19F signal 24 h after MI” value (bone marrow neutrophils [1]; femur and tibia, daily i.v. injections over 3 d before MI) was “substantial reduction”, the “BM 19F signal post MI normalized to the 19F signals detected before induction of MI” value (bone marrow neutrophils [1]; mNPPFC-labeled mice, Nabs = plus antibodies against CXCL1, CXCL2, G-CSF, GM-CSF i.p. 1 h before and 4 h post MI, individual experiments) was 69.1617 and 64.46 and 69.676 and 82.4597 and 48.7011 and 58.4948 and 73.1944 and 76.1165 and the “19F signal within the femur and tibia (bone marrow)” value (bone marrow neutrophils [2]) was 519273 and 821555 and 523902 and 983614 and 347032.
